# According to US9034381B2, “Process to control particle size” (Alphapharm Pty Ltd, priority 2005, dated 2015):
# Several values for one entry are separate records, joined by “and”; a condition that tells them apart may be missing. Equal values may be shown once.
# Test: Particle size measurement of milled material (Malvern Mastersizer S laser diffraction)
# Assay type: physicochemical
# [1] = Example 1 (comparative), feedstock, individual samples
# [2] = Example 1 (comparative), feedstock
# [3] = Example 1 (comparative), micronised in a single process, composite
# [4] = Example 1 (comparative), micronised in a single process, individual samples
# [5] = Example 2 (comparative), feedstock, individual samples
# [6] = Example 2 (comparative), feedstock
# [7] = Example 2 (comparative), micronised in a single process, composite
# [8] = Example 2 (comparative), micronised in a single process, individual samples
# [9] = Example 3 (comparative), feedstock
# [10] = Example 3 (comparative), micronised in a single process, composite
# [11] = Example 3 (comparative), micronised in a single process, individual samples
# [12] = Example 4, micronised first pass
# [13] = Example 4, micronised second pass
smiles,measurement,setting,value
NC(=O)N1c2ccccc2CC(=O)c2ccccc21 [Oxcarbazepine],"D[v, 0.5]",[1],47.04 μm and 47.77 μm
same,"D[v, 0.9]",[1],98.61 μm and 101.96 μm
same,"D[v, 0.5] mean",[2],47.41 μm
same,"D[v, 0.9] mean",[2],100.29 μm
same,"D[v, 0.5] composite (average)",[3],15.27 μm
same,"D[v, 0.9] composite (average)",[3],53.30 μm
same,"D[v, 0.5]",[4],15.02 μm and 15.18 μm and 15.16 μm and 25.41 μm and 10.36 μm
same,"D[v, 0.9]",[4],52.08 μm and 51.71 μm and 51.94 μm and 67.97 μm and 44.13 μm
same,"D[v, 0.5]",[5],47.04 μm and 47.77 μm
same,"D[v, 0.9]",[5],98.61 μm and 101.96 μm
same,"D[v, 0.5] mean",[6],47.41 μm
same,"D[v, 0.9] mean",[6],100.29 μm
same,"D[v, 0.5] composite (average)",[7],5.95 μm
same,"D[v, 0.9] composite (average)",[7],30.47 μm
same,"D[v, 0.5]",[8],3.84 μm and 6.09 μm and 2.15 μm and 4.91 μm
same,"D[v, 0.9]",[8],19.56 μm and 31.90 μm and 11.56 μm and 27.25 μm
same,"D[v, 0.5]",[9],73.33 μm
same,"D[v, 0.9]",[9],323.50 μm
same,"D[v, 0.5] composite",[10],13.79 μm
same,"D[v, 0.9] composite (average)",[10],33.14 μm
same,"D[v, 0.5]",[11],7.50 μm and 19.51 μm and 15.09 μm and 15.64 μm
same,"D[v, 0.9]",[11],16.47 μm and 44.34 μm and 34.47 μm and 35.78 μm
same,"D[v, 0.5] mean","Example 4, initial feedstock",65.06 μm
same,"D[v, 0.9] mean","Example 4, initial feedstock",177.81 μm
same,"D[v, 0.5] mean",[12],33.89 μm
same,"D[v, 0.9] mean",[12],78.22 μm
same,"D[v, 0.5] mean",[13],16.30 μm
same,"D[v, 0.9] mean",[13],37.22 μm
